{
  "source": "patent US20250049775A1",
  "about": "“USE OF AMINOPYRAZOLE COMPOUNDS” (Intervet Inc., priority 2021, published 2025)",
  "key": {"cIL-31 induced pruritus [1]": {"tested_on": "cIL-31 induced pruritus", "conditions": "prior treatment, Beagle dogs, Gonzales et al. 2016; cited from earlier work"}, "[2]": {"conditions": "cited from earlier work"}, "[3]": {"tested_on": "pruritus and lesions of allergic or atopic dermatitis", "conditions": "cited from earlier work"}, "Tmax after oral dosing": {"assay": "Tmax after oral dosing", "assay_type": "in vivo, Beagle dog", "conditions": "laboratory Beagle dogs", "description": "(§1) Using a randomized, non-blinded, cross-over study design, Compound 1 (1 mg/kg body weight), Apoquel®, or placebo was dosed orally to laboratory Beagle dogs 2 h prior to a cIL-31 challenge (approximate Tmax of Compound 1 and Apoquel®)."}, "[4]": {"assay": "pilot Target Animal Safety (margin of safety) study, oral, 4 months", "assay_type": "in vivo, Beagle dog", "description": "A pilot Target Animal Safety study has been performed.\nThe objective of this study was to provide margin of safety information on Compound 1 at 1, 3 and 5 times the maximum recommended commercial dose (0.6 mg/kg body weight twice daily for two weeks and once daily thereafter (BID), or 1.2 mg/kg body weight daily (SID)) in 8-month-old Beagle dogs (at initiation of dosing), when given orally for 4 months (112 consecutive days). The clinical loading phase of 2 weeks for the BID treatment schedule was prolonged to 6 weeks in this study in accordance with VICH GL43 (3 times the proposed duration).\nThe test item was the final formulation blend of the investigational veterinary product, filled into gelatine capsules for dose administration. The control article was blank (empty) gelatine capsules.\nIn addition to that, a 4-month pilot target animal safety study has been conducted in 6-months old dogs utilizing either doses of 0.6, 1.8 or 3.0 mg/kg twice daily over the first 6 weeks (loading phase) and reducing to once daily thereafter (BID), or a dose of 6.0 mg/kg administered once daily over the whole study period (SID) compared to a control group, using 3 males and 3 females per group (Robertson, 2021)."}, "cIL-31 induced pruritus [5]": {"tested_on": "cIL-31 induced pruritus", "assay": "canine interleukin-31 (cIL-31) induced pruritus model", "assay_type": "in vivo, Beagle dog", "excerpt": "A canine interleukin-31 (cIL-31) induced pruritus model in the Beagle dog was used to inform on the dose of Compound 1 required to inhibit JAK1 signaling in vivo. The cIL-31 induced pruritus model is a relevant model of acute pruritus associated with atopic and allergic dermatitis in dogs. The magnitude of the suppression of cIL-31 induced pruritus by JAK inhibitors is predictive of their pruritus suppression in patients with allergic or atopic dermatitis As a measure of JAK-1 inhibition in vivo, and by extension the anticipated clinical efficacy of Compound 1, we evaluated Compound 1 in a relevant pharmacodynamic model and included a clinical reference.\nas §1\nIn a second study using a randomized, non-blinded crossover design, several doses of Compound 1 were evaluated (0.5, 0.1 and 0.05 mg/kg body weight); Apoquel® and placebo treatments were also included."}, "[6]": {"conditions": "dogs with allergic or atopic dermatitis, Cosgrove et al. 2013"}},
  "data": [
    {"compound": "oclacitinib maleate [Apoquel]", "values": [
      {"measurement": "inhibition of cIL-31 induced pruritic response", "setting": "cIL-31 induced pruritus [1]", "value": "can be inhibited"},
      {"measurement": "dogs requiring euthanasia", "setting": "[2]; after 4 months, 0, 1, 3, 5 times 0.6 mg/kg twice per day, dogs about 6 months old", "value": "two dogs required euthanasia"},
      {"measurement": "age dependence of adverse clinical effects", "setting": "[2]; dog, in vivo", "value": "most severe adverse clinical effects were observed in dogs aged less than one year"},
      {"measurement": "deaths from infection secondary to immunosuppression", "setting": "[2]; including one death 28 days after discontinuation", "value": "two deaths"},
      {"measurement": "adverse finding attributed to treatment-related immunosuppression", "setting": "[2]; several dogs in the mid and high dose groups", "value": "clinical demodicosis"},
      {"measurement": "effect on lesions", "setting": "[3]; [6]", "value": "reduces lesions"},
      {"measurement": "effect on pruritus", "setting": "[3]; [6]", "value": "rapid amelioration of pruritus"},
      {"measurement": "haematology effect", "setting": "[3]; higher doses, FOI Summary NADA 141-345, Gonzales et al. 2014", "value": "reduction in hematocrit, hemoglobin, and reticulocyte counts"},
      {"measurement": "approximate Tmax", "setting": "Tmax after oral dosing", "value": "~2", "unit": "h"}
    ]},
    {"compound": "COc1cc(Nc2nn([C@H]3COCC[C@@H]3C#N)cc2C(N)=O)cc(F)n1", "note": "(single isomer, unassigned) [Compound 1, 1-((3R,4S) or (3S,4R)-4-cyanotetrahydro-2H-pyran-3-yl)-3-((2-fluoro-6-methoxypyridin-4-yl)amino)-1H-pyrazole-4-carboxamide)]", "values": [
      {"measurement": "changes in body weight, food consumption, ophthalmic examinations, electrocardiology or blood pressure", "setting": "[4]; all doses, male and female dogs, oral, 4 months", "value": "no changes"},
      {"measurement": "tolerability", "setting": "[4]; daily oral, up to 5 times the recommended maximum commercial dose of 1.2 mg/kg body weight (BID or SID), 6-month-old beagle dogs", "value": "well tolerated"},
      {"measurement": "clinical findings", "setting": "[4]; overdosed animals", "value": "Minor clinical findings (e.g., interdigital cysts, conjunctivitis, gingivitis, diarrhoea)"},
      {"measurement": "susceptibility to minor infections", "setting": "[4]; recommended maximum commercial dose", "value": "no increased susceptibility to minor infections"},
      {"measurement": "susceptibility to minor infections", "setting": "[4]; repeated overdoses", "value": "increased susceptibility to minor infections"},
      {"measurement": "overall safety conclusion", "setting": "[4]; young dogs", "value": "safe for use in young dogs"},
      {"measurement": "suppression of cIL-31 induced pruritus", "setting": "cIL-31 induced pruritus [5]; 0.05 mg/kg body weight, second study", "value": "not"},
      {"measurement": "suppression of cIL-31 induced pruritus", "setting": "cIL-31 induced pruritus [5]; 0.1 mg/kg body weight, second study", "value": "not"},
      {"measurement": "suppression of cIL-31 induced pruritus", "setting": "cIL-31 induced pruritus [5]; 0.5 mg/kg body weight, second study", "value": "significantly suppressed"},
      {"measurement": "magnitude of effect compared with Apoquel", "setting": "cIL-31 induced pruritus [5]; 0.5 mg/kg, second study", "value": "similar"},
      {"measurement": "suppression of cIL-31 induced pruritus", "setting": "cIL-31 induced pruritus [5]; 1 mg/kg body weight oral, 2 h prior to cIL-31 challenge, observed 2 h", "value": "significantly suppressed"},
      {"measurement": "Tmax", "setting": "Tmax after oral dosing; dog, in vivo, 1 mg/kg body weight, read-out: approximate Tmax", "value": "~2", "unit": "h"}
    ]}
  ]
}
